Measurements from EP0333517A2, “Method and agent for inhibiting the binding of human polymorphonuclear leukocytes to endothelium and compositions therefor” (THE ROCKEFELLER UNIVERSITY, priority 1988, dated 1989).
Residues, ends and D or L forms follow the SMILES beside them.

Experiments:
[1] = tested on: binding of PMN to endothelial cells; experiment: Binding of phorbol dibutyrate-stimulated PMN to endothelial cells (binding assessed by microscopy); assay type: cell-based; settings: indicated doses (Figures 3 and 4, not given); human umbilical cord endothelial cells; 37°C for 15 min
Description: This example illustrates that the method of the invention can be used to inhibit the binding of stimulated PMN to human endothelial cells.
The experiments are conducted as follows. Purified human PMN were stimulated for 15 min. with 300 ng/ml of phorbol dibutyrate. This stimulation is necessary to enable PMN to bind, and mimics the stimulation of PMN at sites of inflammation. Endothelial cells were isolated from human umbilical cords by standard methods [Pawlowski et al., Proc. Natl. Aca. Sci., 82, 8202 (1985)] and were cultivated on fibronectin-coated tissue culture surfaces to confluence. […] PMN were washed and combined with the indicated doses of Arg-Leu-Leu-Pro-Gly-Gly-Leu-Gln-Gln-Gly-Arg-Gly- Asp-Ala-Val-Gly-Pro-Glu-Arg-Gly-Cys (Pep63) in Figure 3, or with the indicated doses of Gly-Gln-Gln-His-His-Leu-Gly-Gly-Ala-Lys-Gln-Ala-Gly-Asp-Val (G15) in Figure 4. The cells were then added to the endothelium and incubated at 37°C for 15 min. Unattached PMN were then washed away and the binding was assessed by microscopy.

[2] = tested on: binding of PMN to fibrinogen; experiment: Binding of phorbol dibutyrate-stimulated PMN to fibrinogen-coated surfaces (adherent cells counted by phase contrast microscopy); assay type: cell-based, human; settings: 2 mg/ml of synthetic peptide; PMN stimulated with 300 ng/ml phorbol dibutyrate; 20 min at 0°C then 30 min at 37°C; Figure 1
Description: This example illustrates that the method of the invention can be used to inhibit binding of stimulated PMN to fibrinogen-coated surfaces. Figure 1 illustrates the level of inhibition of binding by incubation with monoclonal antibodies against CD11b/CD18 and with the peptide L10, and Figure 2 illustrates the dose dependence of this inhibition.
Details of the experiments are as follows. Purified human PMN were stimulated for 15 min. with 300 ng/ml of phorbol dibutyrate. This stimulation is necessary to enable PMN to bind, and mimics the stimulation of PMN at sites of inflammation. Culture wells were coated with fibrinogen or human serum albumin by incubating 1 mg/ml of these proteins with the culture surfaces for 1 hr. at 20°C. The PMN were then washed and added to culture wells coated with fibrinogen in the presence of 10µg/ml of various monoclonal antibodies or 2 mg/ml of synthetic peptides. PMN were allowed to settle onto the surface for 20 min. at 0°C, then were warmed to 37°C for 30 min. The surfaces were then washed and the number of cells adherent were counted by phase contrast microscopy.

Structure (SMILES) | inhibition of the binding of PMN to endothelial cells [1] | binding of PMN to fibrinogen [2]
CC(C)C[C@H](NC(=O)CNC(=O)CNC(=O)[C@@H]1CCCN1C(=O)[C@H](CC(C)C)NC(=O)[C@H](CC(C)C)NC(=O)[C@@H](N)CCCNC(=N)N)C(=O)N[C@@H](CCC(N)=O)C(=O)N[C@@H](CCC(N)=O)C(=O)NCC(=O)N[C@@H](CCCNC(=N)N)C(=O)NCC(=O)N[C@@H](CC(=O)O)C(=O)N[C@@H](C)C(=O)N[C@H](C(=O)NCC(=O)N1CCC[C@H]1C(=O)N[C@@H](CCC(=O)O)C(=O)N[C@@H](CCCNC(=N)N)C(=O)NCC(=O)N[C@@H](CS)C(=O)O)C(C)C [Pep63] (H-RLLPGGLQQGRGDAVGPERGC-OH) | dose dependence of inhibition | 
CC(C)C[C@H](N)C(=O)NCC(=O)NCC(=O)N[C@@H](C)C(=O)N[C@@H](CCCCN)C(=O)N[C@@H](CCC(N)=O)C(=O)N[C@@H](C)C(=O)NCC(=O)N[C@@H](CC(=O)O)C(=O)N[C@H](C(=O)O)C(C)C [L10, Leu-Gly-Gly-Ala-Lys-Gln-Ala-Gly-Asp-Val] (H-LGGAKQAGDV-OH) |  | strongly inhibits binding
CC(C)C[C@H](NC(=O)[C@H](Cc1c[nH]cn1)NC(=O)[C@H](Cc1c[nH]cn1)NC(=O)[C@H](CCC(N)=O)NC(=O)[C@H](CCC(N)=O)NC(=O)CN)C(=O)NCC(=O)NCC(=O)N[C@@H](C)C(=O)N[C@@H](CCCCN)C(=O)N[C@@H](CCC(N)=O)C(=O)N[C@@H](C)C(=O)NCC(=O)N[C@@H](CC(=O)O)C(=O)N[C@H](C(=O)O)C(C)C [G15, Gly-Gln-Gln-His-His-Leu-Gly-Gly-Ala-Lys-Gln-Ala-Gly-Asp-Val] (H-GQQHHLGGAKQAGDV-OH) | dose dependence of inhibition | 
